{
  "source": "patent US8192962B2",
  "about": "“Processes for detecting toxic substances” (Daikin Industries, Ltd., priority 2001, dated 2012)",
  "tested_on": "Energy system protein genes",
  "assay": "DNA chip mRNA expression in yeast, energy system protein genes (Table 4)",
  "type": "cell-based, Saccharomyces cerevisiae S288C",
  "how_it_was_run": "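Untreated cultures served as reference for log-phase S288C yeast given a growth-inhibiting, non-lethal toxicant dose for 2 h at 25° C. in YPD. Gene expression was measured on a whole-genome DNA chip from Cy3/Cy5-labeled cDNA.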",
  "data": [
    {"smiles": "COc1cc(CNC(=O)CCCCC=CC(C)C)ccc1O", "note": "[(12), 8-methyl-N-vanillyl-6-nonenamide]", "values": [
      {"measurement": "The level of expressed mRNA in the presence of chemical substance/The level of expressed mRNA in the absence of chemical substance", "setting": "yeast gene YJR048W", "value": 0.8},
      {"measurement": "The level of expressed mRNA in the presence of chemical substance/The level of expressed mRNA in the absence of chemical substance", "setting": "yeast gene YJR121W, cells incubated two hours with the chemical substance", "value": 0.8},
      {"measurement": "The level of expressed mRNA in the presence of chemical substance/The level of expressed mRNA in the absence of chemical substance", "setting": "yeast gene YJR155W", "value": 1.0},
      {"measurement": "The level of expressed mRNA in the presence of chemical substance/The level of expressed mRNA in the absence of chemical substance", "setting": "yeast gene YKL016C, cells incubated two hours with the chemical substance", "value": 1.0},
      {"measurement": "The level of expressed mRNA in the presence of chemical substance/The level of expressed mRNA in the absence of chemical substance", "setting": "yeast gene YKL060C, cells incubated two hours with the chemical substance", "value": 1.3},
      {"measurement": "The level of expressed mRNA in the presence of chemical substance/The level of expressed mRNA in the absence of chemical substance", "setting": "yeast gene YKL141W, cells incubated two hours with the chemical substance", "value": 0.8},
      {"measurement": "The level of expressed mRNA in the presence of chemical substance/The level of expressed mRNA in the absence of chemical substance", "setting": "yeast gene YKL148C, cells incubated two hours with the chemical substance", "value": 0.8},
      {"measurement": "The level of expressed mRNA in the presence of chemical substance/The level of expressed mRNA in the absence of chemical substance", "setting": "yeast gene YKR009C, cells incubated two hours with the chemical substance", "value": 1.0},
      {"measurement": "The level of expressed mRNA in the presence of chemical substance/The level of expressed mRNA in the absence of chemical substance", "setting": "yeast gene YKR058W, cells incubated two hours with the chemical substance, 25° C., YPD medium", "value": 0.9},
      {"measurement": "The level of expressed mRNA in the presence of chemical substance/The level of expressed mRNA in the absence of chemical substance", "setting": "yeast gene YKR097W", "value": 1.8},
      {"measurement": "The level of expressed mRNA in the presence of chemical substance/The level of expressed mRNA in the absence of chemical substance", "setting": "yeast gene YLL041C, cells incubated two hours with the chemical substance", "value": 0.8},
      {"measurement": "The level of expressed mRNA in the presence of chemical substance/The level of expressed mRNA in the absence of chemical substance", "setting": "yeast gene YLR038C, cells incubated two hours with the chemical substance", "value": 0.6},
      {"measurement": "The level of expressed mRNA in the presence of chemical substance/The level of expressed mRNA in the absence of chemical substance", "setting": "yeast gene YLR044C, cells incubated two hours with the chemical substance", "value": 1.4},
      {"measurement": "The level of expressed mRNA in the presence of chemical substance/The level of expressed mRNA in the absence of chemical substance", "setting": "yeast gene YLR134W, cells incubated two hours with the chemical substance", "value": 1.2},
      {"measurement": "The level of expressed mRNA in the presence of chemical substance/The level of expressed mRNA in the absence of chemical substance", "setting": "yeast gene YLR258W, cells incubated two hours with the chemical substance", "value": 0.9},
      {"measurement": "The level of expressed mRNA in the presence of chemical substance/The level of expressed mRNA in the absence of chemical substance", "setting": "yeast gene YLR284C, cells incubated two hours with the chemical substance", "value": 0.6},
      {"measurement": "The level of expressed mRNA in the presence of chemical substance/The level of expressed mRNA in the absence of chemical substance", "setting": "yeast gene YLR295C, cells incubated two hours with the chemical substance, 25° C., YPD medium", "value": 0.5},
      {"measurement": "The level of expressed mRNA in the presence of chemical substance/The level of expressed mRNA in the absence of chemical substance", "setting": "yeast gene YLR304C, cells incubated two hours with the chemical substance", "value": 1.0},
      {"measurement": "The level of expressed mRNA in the presence of chemical substance/The level of expressed mRNA in the absence of chemical substance", "setting": "yeast gene YLR345W", "value": 1.6},
      {"measurement": "The level of expressed mRNA in the presence of chemical substance/The level of expressed mRNA in the absence of chemical substance", "setting": "yeast gene YLR354C, cells incubated two hours with the chemical substance", "value": 1.2},
      {"measurement": "The level of expressed mRNA in the presence of chemical substance/The level of expressed mRNA in the absence of chemical substance", "setting": "yeast gene YLR377C, cells incubated two hours with the chemical substance", "value": 0.6},
      {"measurement": "The level of expressed mRNA in the presence of chemical substance/The level of expressed mRNA in the absence of chemical substance", "setting": "yeast gene YLR395C, cells incubated two hours with the chemical substance", "value": 0.6},
      {"measurement": "The level of expressed mRNA in the presence of chemical substance/The level of expressed mRNA in the absence of chemical substance", "setting": "yeast gene YML054C", "value": 1.8},
      {"measurement": "The level of expressed mRNA in the presence of chemical substance/The level of expressed mRNA in the absence of chemical substance", "setting": "yeast gene YML087C", "value": 0.8},
      {"measurement": "The level of expressed mRNA in the presence of chemical substance/The level of expressed mRNA in the absence of chemical substance", "setting": "yeast gene YML120C, cells incubated two hours with the chemical substance", "value": 0.9},
      {"measurement": "The level of expressed mRNA in the presence of chemical substance/The level of expressed mRNA in the absence of chemical substance", "setting": "yeast gene YML129C, cells incubated two hours with the chemical substance", "value": 0.8},
      {"measurement": "The level of expressed mRNA in the presence of chemical substance/The level of expressed mRNA in the absence of chemical substance", "setting": "yeast gene YMR073C, cells incubated two hours with the chemical substance", "value": 0.8},
      {"measurement": "The level of expressed mRNA in the presence of chemical substance/The level of expressed mRNA in the absence of chemical substance", "setting": "yeast gene YMR118C", "value": 0.8},
      {"measurement": "The level of expressed mRNA in the presence of chemical substance/The level of expressed mRNA in the absence of chemical substance", "setting": "yeast gene YMR205C, cells incubated two hours with the chemical substance", "value": 1.1},
      {"measurement": "The level of expressed mRNA in the presence of chemical substance/The level of expressed mRNA in the absence of chemical substance", "setting": "yeast gene YMR261C, cells incubated two hours with the chemical substance", "value": 0.9},
      {"measurement": "The level of expressed mRNA in the presence of chemical substance/The level of expressed mRNA in the absence of chemical substance", "setting": "yeast gene YMR267W, cells incubated two hours with the chemical substance, 25° C., YPD medium", "value": 0.8},
      {"measurement": "The level of expressed mRNA in the presence of chemical substance/The level of expressed mRNA in the absence of chemical substance", "setting": "yeast gene YMR323W, cells incubated two hours with the chemical substance", "value": 1.2},
      {"measurement": "The level of expressed mRNA in the presence of chemical substance/The level of expressed mRNA in the absence of chemical substance", "setting": "yeast gene YNL071W", "value": 1.3},
      {"measurement": "The level of expressed mRNA in the presence of chemical substance/The level of expressed mRNA in the absence of chemical substance", "setting": "yeast gene YNL202W, cells incubated two hours with the chemical substance", "value": 0.9},
      {"measurement": "The level of expressed mRNA in the presence of chemical substance/The level of expressed mRNA in the absence of chemical substance", "setting": "yeast gene YNL241C", "value": 2.0},
      {"measurement": "The level of expressed mRNA in the presence of chemical substance/The level of expressed mRNA in the absence of chemical substance", "setting": "yeast gene YNL331C", "value": 0.9},
      {"measurement": "The level of expressed mRNA in the presence of chemical substance/The level of expressed mRNA in the absence of chemical substance", "setting": "yeast gene YOL086C, cells incubated two hours with the chemical substance", "value": 1.3},
      {"measurement": "The level of expressed mRNA in the presence of chemical substance/The level of expressed mRNA in the absence of chemical substance", "setting": "yeast gene YOL165C", "value": 0.8},
      {"measurement": "The level of expressed mRNA in the presence of chemical substance/The level of expressed mRNA in the absence of chemical substance", "setting": "yeast gene YOR142W, cells incubated two hours with the chemical substance", "value": 0.8},
      {"measurement": "The level of expressed mRNA in the presence of chemical substance/The level of expressed mRNA in the absence of chemical substance", "setting": "yeast gene YOR178C, cells incubated two hours with the chemical substance", "value": 1.7},
      {"measurement": "The level of expressed mRNA in the presence of chemical substance/The level of expressed mRNA in the absence of chemical substance", "setting": "yeast gene YOR388C, cells incubated two hours with the chemical substance", "value": 0.7},
      {"measurement": "The level of expressed mRNA in the presence of chemical substance/The level of expressed mRNA in the absence of chemical substance", "setting": "yeast gene YPL031C, cells incubated two hours with the chemical substance", "value": 0.8},
      {"measurement": "The level of expressed mRNA in the presence of chemical substance/The level of expressed mRNA in the absence of chemical substance", "setting": "yeast gene YPL061W, cells incubated two hours with the chemical substance", "value": 1.0},
      {"measurement": "The level of expressed mRNA in the presence of chemical substance/The level of expressed mRNA in the absence of chemical substance", "setting": "yeast gene YPL088W", "value": 3.6},
      {"measurement": "The level of expressed mRNA in the presence of chemical substance/The level of expressed mRNA in the absence of chemical substance", "setting": "yeast gene YPL171C", "value": 1.4},
      {"measurement": "The level of expressed mRNA in the presence of chemical substance/The level of expressed mRNA in the absence of chemical substance", "setting": "yeast gene YPL240C", "value": 0.8},
      {"measurement": "The level of expressed mRNA in the presence of chemical substance/The level of expressed mRNA in the absence of chemical substance", "setting": "yeast gene YPL262W, cells incubated two hours with the chemical substance", "value": 1.1},
      {"measurement": "The level of expressed mRNA in the presence of chemical substance/The level of expressed mRNA in the absence of chemical substance", "setting": "yeast gene YPL275W, cells incubated two hours with the chemical substance", "value": 0.6},
      {"measurement": "The level of expressed mRNA in the presence of chemical substance/The level of expressed mRNA in the absence of chemical substance", "setting": "yeast gene YPL276W, cells incubated two hours with the chemical substance", "value": 0.6},
      {"measurement": "The level of expressed mRNA in the presence of chemical substance/The level of expressed mRNA in the absence of chemical substance", "setting": "yeast gene YPR048W, cells incubated two hours with the chemical substance", "value": 0.8},
      {"measurement": "The level of expressed mRNA in the presence of chemical substance/The level of expressed mRNA in the absence of chemical substance", "setting": "yeast gene YPR184W, cells incubated two hours with the chemical substance", "value": 1.4}
    ]}
  ]
}
